The values below come from patent publication US11807644B2 (PMV Pharmaceuticals, Inc., priority 2020, dated 2023).

The test concerns the target T1, recombinant His-tag Y220C p53 DBD protein (Homo sapiens, UniProt P04637, Y220C).
T1 construct: recombinant His-tag Y220C p53 DBD protein (amino acids #˜94-312)
The test is described as follows: In vitro DNA binding activity assay (TR-FRET): binding of His-tag Y220C p53 DBD to biotin-labeled consensus DNA. The note with it: for Y220C SC150 (μM): SC150 = concentration to increase DNA binding by […], His-tag Y220C p53 DBD, biotin-labeled consensus DNA. In kind it is biochemical. (In general: In TR-FRET formats the signal depends on donor and acceptor labels being close together.)

With `CN1CC[C@@H](Nc2cccc3c2cc(-c2noc(CNC(=O)c4cc(C(C)(C)C)on4)n2)n3CC(F)(F)F)[C@@H](F)C1` [Compound 543B, 5-tert-butyl-N-{[3-(4-{[(3S,4R)-3-fluoro-1-methylpiperidin-4-yl]amino}-1-(2,2,2-trifluoroethyl)-1H-indol-2-yl)-1,2,4-oxadiazol-5-yl]methyl}-1,2-oxazole-3-carboxamide], the “Y220C SC150 (μM)” value is “* (* = 0 μM ≤ SC150 < 0.1 μM)”.

For the compound `CN1CC[C@H](Nc2cccc3c2cc(-c2nnc(CNC(=O)c4ccccc4)s2)n3CC(F)(F)F)[C@H](F)C1` [Compound 26B, N-{[5-(4-{[(3R,4S)-3-fluoro-1-methylpiperidin-4-yl]amino}-1-(2,2,2-trifluoroethyl)-1H-indol-2-yl)-1,3,4-thiadiazol-2-yl]methyl}benzamide], the “Y220C SC150 (μM)” value is listed as “** (** = 0.1 μM ≤ SC150 < 0.5 μM)”.

In the case of `CN1CCC(Nc2cccc3c2cc(-c2nnc(CNC(=O)c4ccc5cn[nH]c5c4)s2)n3CC(F)(F)F)CC1` [Compound 69B, N-[(5-{4-[(1-methylpiperidin-4-yl)amino]-1-(2,2,2-trifluoroethyl)-1H-indol-2-yl}-1,3,4-thiadiazol-2-yl)methyl]-1H-indazole-6-carboxamide], the “Y220C SC150 (μM)” value is “* (* = 0 μM ≤ SC150 < 0.1 μM)”.

Regarding `COCC(C)n1ccc(C(=O)NCc2nc(-c3cc4c(N[C@@H]5CCN(C)C[C@@H]5F)cccc4n3CC(F)(F)F)no2)c1` (stereo partly drawn) [Compound 289B, N-{[3-(4-{[(3S,4R)-3-fluoro-1-methylpiperidin-4-yl]amino}-1-(2,2,2-trifluoroethyl)-1H-indol-2-yl)-1,2,4-oxadiazol-5-yl]methyl}-1-(1-methoxypropan-2-yl)-1H-pyrrole-3-carboxamide], the “Y220C SC150 (μM)” value was “* (* = 0 μM ≤ SC150 < 0.1 μM)”.

As for `CN1CC[C@@H](Nc2cccc3c2cc(-c2noc(CNC(=O)c4ccc(N5CCC(F)(F)CC5)cc4)n2)n3CC(F)(F)F)[C@@H](F)C1` [Compound 256B, 4-(4,4-difluoropiperidin-1-yl)-N-{[3-(4-{[(3S,4R)-3-fluoro-1-methylpiperidin-4-yl]amino}-1-(2,2,2-trifluoroethyl)-1H-indol-2-yl)-1,2,4-oxadiazol-5-yl]methyl}benzamide], the “Y220C SC150 (μM)” value is listed as “* (* = 0 μM ≤ SC150 < 0.1 μM)”.

In the case of `CN1CC[C@@H](Nc2cccc3c2cc(-c2cc(CNC(=O)c4cnn(C(C)(C)C)c4)on2)n3CC(F)(F)F)[C@@H](F)C1` [Compound 554B, 1-tert-butyl-N-{[3-(4-{[(3S,4R)-3-fluoro-1-methylpiperidin-4-yl]amino}-1-(2,2,2-trifluoroethyl)-1H-indol-2-yl)-1,2-oxazol-5-yl]methyl}-1H-pyrazole-4-carboxamide], the “Y220C SC150 (μM)” value is “* (* = 0 μM ≤ SC150 < 0.1 μM)”.

For `CN1CC[C@@H](Nc2cccc3c2cc(-c2noc(CNC(=O)c4cn5ccccc5n4)n2)n3CC(F)(F)F)[C@@H](F)C1` [Compound 217B, N-{[3-(4-{[(3S,4R)-3-fluoro-1-methylpiperidin-4-yl]amino}-1-(2,2,2-trifluoroethyl)-1H-indol-2-yl)-1,2,4-oxadiazol-5-yl]methyl}imidazo[1,2-a]pyridine-2-carboxamide], the “Y220C SC150 (μM)” value is recorded as “* (* = 0 μM ≤ SC150 < 0.1 μM)”.

Turning to `CN1CC[C@@H](Nc2cccc3c2cc(-c2noc(CNC(=O)c4csc(C(C)(C)O)c4)n2)n3CC(F)(F)F)[C@@H](F)C1` [Compound 425B, N-{[3-(4-{[(3S,4R)-3-fluoro-1-methylpiperidin-4-yl]amino}-1-(2,2,2-trifluoroethyl)-1H-indol-2-yl)-1,2,4-oxadiazol-5-yl]methyl}-5-(2-hydroxypropan-2-yl)thiophene-3-carboxamide], the “Y220C SC150 (μM)” value is listed as “* (* = 0 μM ≤ SC150 < 0.1 μM)”.

Consider `CN1CCC(Nc2cccc3c2cc(-c2noc(CNC(=O)[C@@H]4C[C@H]4F)n2)n3CC(F)(F)F)CC1` (racemic) [Compound 145B, (1S,2R)-2-fluoro-N-[(3-{4-[(1-methylpiperidin-4-yl)amino]-1-(2,2,2-trifluoroethyl)-1H-indol-2-yl}-1,2,4-oxadiazol-5-yl)methyl]cyclopropane-1-carboxamide], for which the “Y220C SC150 (μM)” value is “* (* = 0 μM ≤ SC150 < 0.1 μM)”.

With `COC(C)(C)c1nc(C(=O)NCc2nc(-c3cc4c(N[C@@H]5CCN(C)C[C@@H]5F)cccc4n3CC(F)(F)F)no2)cs1` [Compound 530B, N-{[3-(4-{[(3S,4R)-3-fluoro-1-methylpiperidin-4-yl]amino}-1-(2,2,2-trifluoroethyl)-1H-indol-2-yl)-1,2,4-oxadiazol-5-yl]methyl}-2-(2-methoxypropan-2-yl)-1,3-thiazole-4-carboxamide], the “Y220C SC150 (μM)” value is “* (* = 0 μM ≤ SC150 < 0.1 μM)”.

With `CN1CC[C@@H](Nc2cccc3c2cc(-c2noc(CNC(=O)c4ccn(C(C)(C)CF)n4)n2)n3CC(F)(F)F)[C@@H](F)C1` [Compound 548B, N-{[3-(4-{[(3S,4R)-3-fluoro-1-methylpiperidin-4-yl]amino}-1-(2,2,2-trifluoroethyl)-1H-indol-2-yl)-1,2,4-oxadiazol-5-yl]methyl}-1-(1-fluoro-2-methylpropan-2-yl)-1H-pyrazole-3-carboxamide], the “Y220C SC150 (μM)” value was “* (* = 0 μM ≤ SC150 < 0.1 μM)”.

As to `CN1CC[C@@H](Nc2cccc3c2cc(-c2noc(CNC(=O)c4cnc(N5CCCC5)s4)n2)n3CC(F)(F)F)[C@@H](F)C1` [Compound 459B, N-{[3-(4-{[(3S,4R)-3-fluoro-1-methylpiperidin-4-yl]amino}-1-(2,2,2-trifluoroethyl)-1H-indol-2-yl)-1,2,4-oxadiazol-5-yl]methyl}-2-(pyrrolidin-1-yl)-1,3-thiazole-5-carboxamide], the “Y220C SC150 (μM)” value is given as “* (* = 0 μM ≤ SC150 < 0.1 μM)”.

Turning to `O=C(O)c1cccc(-c2cc3c(NC4CCS(=O)(=O)CC4)cccc3n2CC(F)(F)F)c1` [Compound 20A, 3-{4-[(1,1-dioxo-1λ^6-thian-4-yl)amino]-1-(2,2,2-trifluoroethyl)-1H-indol-2-yl}benzoic acid], under “concentration to increase DNA binding by […], incubated at either 27° C. or 29° C. for 60 min”, the “SC150 (μM)” value is “++++ (++++ = 10 μM ≤ SC150 < 35 μM)”.

Regarding `CN1CCC(Nc2cccc3c2cc(-c2ccc(CNc4ccc(S(C)(=O)=O)cc4)s2)n3CC(F)(F)F)CC1` [Compound 100B, 2-(5-{[(4-methanesulfonylphenyl)amino]methyl}thiophen-2-yl)-N-(1-methylpiperidin-4-yl)-1-(2,2,2-trifluoroethyl)-1H-indol-4-amine], the “Y220C SC150 (μM)” value is given as “** (** = 0.1 μM ≤ SC150 < 0.5 μM)”.

With `CN1CC[C@@H](Nc2cccc3c2cc(-c2noc(C(=O)NCc4cnn(C)c4)n2)n3CC(F)(F)F)[C@@H](F)C1` [Compound 546B, 3-(4-{[(3S,4R)-3-fluoro-1-methylpiperidin-4-yl]amino}-1-(2,2,2-trifluoroethyl)-1H-indol-2-yl)-N-[(1-methyl-1H-pyrazol-4-yl)methyl]-1,2,4-oxadiazole-5-carboxamide], the “Y220C SC150 (μM)” value is listed as “** (** = 0.1 μM ≤ SC150 < 0.5 μM)”.

As to `CC(O)Cn1ccc(C(=O)NCc2nc(-c3cc4c(N[C@@H]5CCN(C)C[C@@H]5F)cccc4n3CC(F)(F)F)no2)c1` (stereo partly drawn) [Compound 244B, N-{[3-(4-{[(3S,4R)-3-fluoro-1-methylpiperidin-4-yl]amino}-1-(2,2,2-trifluoroethyl)-1H-indol-2-yl)-1,2,4-oxadiazol-5-yl]methyl}-1-(2-hydroxypropyl)-1H-pyrrole-3-carboxamide], the “Y220C SC150 (μM)” value is recorded as “* (* = 0 μM ≤ SC150 < 0.1 μM)”.
